In patent US20260325533A1, “CDK INHIBITOR COMPOUNDS” (ALEKSIA THERAPEUTICS, INC., priority 2023, published 2026):
Where two headings read alike, the source gives them in different places.

Assays:
Assay type in all cases: biochemical
[1] = target: CDK4/CCND3 (Homo sapiens, UniProt P11802); test: CDK4 homogeneous time-resolved fluorescence (HTRF) kinase assay; details: CDK4/CCND
In short: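 HTRF kinase assay, CDK4/CCND3 1.5 nM, ATP 1 mM, ULight-4E-BP1 peptide 50 nM, 23 °C, 60 min reaction after 20 min preincubation. Eu-anti-pThr37/46 antibody detection. 11-pt half-log curves from 10 μM → IC50.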

[2] = target: CDK6/CCND1 (Homo sapiens, UniProt Q00534); test: CDK6 homogeneous time-resolved fluorescence (HTRF) kinase assay; details: CDK6/CCND
Chain of CDK6/CCND1 (Q00534 whole entry): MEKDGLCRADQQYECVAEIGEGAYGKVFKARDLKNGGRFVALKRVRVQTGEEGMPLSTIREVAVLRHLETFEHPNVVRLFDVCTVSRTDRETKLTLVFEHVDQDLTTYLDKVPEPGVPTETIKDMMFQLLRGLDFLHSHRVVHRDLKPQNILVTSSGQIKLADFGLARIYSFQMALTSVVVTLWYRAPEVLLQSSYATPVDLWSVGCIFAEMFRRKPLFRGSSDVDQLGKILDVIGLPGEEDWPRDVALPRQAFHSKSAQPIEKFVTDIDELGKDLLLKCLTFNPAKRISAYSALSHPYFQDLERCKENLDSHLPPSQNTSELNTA
Chain of CDK6/CCND1 (P24385 whole entry partner): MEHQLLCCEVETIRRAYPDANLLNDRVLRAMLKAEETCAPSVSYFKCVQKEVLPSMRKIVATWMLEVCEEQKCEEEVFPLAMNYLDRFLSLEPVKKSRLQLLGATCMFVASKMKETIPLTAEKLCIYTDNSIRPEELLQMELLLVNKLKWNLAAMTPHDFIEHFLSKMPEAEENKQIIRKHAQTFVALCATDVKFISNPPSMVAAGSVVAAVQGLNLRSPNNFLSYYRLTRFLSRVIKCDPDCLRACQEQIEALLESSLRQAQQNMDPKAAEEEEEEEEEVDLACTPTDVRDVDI
In short: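 Recombinant CDK6/CCND1 (1 nM final) was preincubated with compound for 20 min at 23 °C in HEPES buffer with MgCl2, EGTA, DTT and Tween 20. Kinase reaction then ran 60 min at 23 °C with 1 mM ATP and 50 nM ULight-4E-BP1 (Thr37/46) peptide, and was stopped with EDTA.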

[3] = target: CDK1/CCNB1 (Homo sapiens, UniProt P06493); test: CDK1 homogeneous time-resolved fluorescence (HTRF) kinase assay; details: CDK1/CCNB
Chain of CDK1/CCNB1 (P06493 whole entry): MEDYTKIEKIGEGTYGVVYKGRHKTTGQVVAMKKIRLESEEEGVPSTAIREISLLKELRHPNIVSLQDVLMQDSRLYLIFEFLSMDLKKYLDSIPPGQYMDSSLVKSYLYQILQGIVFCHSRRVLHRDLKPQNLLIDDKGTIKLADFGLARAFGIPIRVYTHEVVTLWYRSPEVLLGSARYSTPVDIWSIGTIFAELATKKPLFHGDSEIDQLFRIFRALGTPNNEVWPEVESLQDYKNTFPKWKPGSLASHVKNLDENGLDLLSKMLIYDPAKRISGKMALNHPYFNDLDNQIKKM
Chain of CDK1/CCNB1 (P14635 whole entry partner): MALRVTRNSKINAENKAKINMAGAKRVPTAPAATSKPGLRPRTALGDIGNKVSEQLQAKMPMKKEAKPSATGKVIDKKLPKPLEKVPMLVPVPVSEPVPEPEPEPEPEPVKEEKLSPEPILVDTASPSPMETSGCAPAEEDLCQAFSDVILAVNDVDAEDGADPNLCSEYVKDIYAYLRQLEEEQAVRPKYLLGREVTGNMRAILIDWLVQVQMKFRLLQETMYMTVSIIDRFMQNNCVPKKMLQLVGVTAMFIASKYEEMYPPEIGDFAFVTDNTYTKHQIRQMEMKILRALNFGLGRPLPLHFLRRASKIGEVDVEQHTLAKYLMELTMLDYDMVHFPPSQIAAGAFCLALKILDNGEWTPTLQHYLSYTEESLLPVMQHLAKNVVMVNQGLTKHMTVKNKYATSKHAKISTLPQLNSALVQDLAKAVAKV
In short: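 0.5 nM CDK1/CCNB1 was preincubated 20 min at 23 °C with compound in HEPES pH-unspecified buffer (MgCl2, EGTA, DTT, Tween 20), then reacted 60 min with 1 mM ATP and 50 nM ULight-4E-BP1 (Thr37/46) peptide. EDTA-stopped reactions were detected with 2 nM Eu-anti-phospho antibody; IC50 from 11-point half-log titrations.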

[4] = target: CDK2/CCNE1 (Homo sapiens, UniProt P24941); test: CDK2 homogeneous time-resolved fluorescence (HTRF) kinase assay; details: CDK2/CCNE
In short: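 TR-FRET read-out (665 nm, or 665/615 ratio) of Eu-antibody detection of phospho-4E-BP1 (Thr37/46) ULight peptide. Enzyme 3 nM, ATP 1 mM, peptide 50 nM, 1% DMSO; 60 min reaction at 23 °C after 20 min compound preincubation. IC50 from 11-point half-log titrations, top typically 10 μM.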

[5] = >250 nM, read-out: CDK4/CCND IC50, >250 nM
[6] = >250 nM, 1 mM ATP, read-out: CDK6/CCND IC50, >250 nM
[7] = >250 nM, read-out: CDK1/CCNB IC50 >250 nM
[8] = 25-250 nM, read-out: CDK2/CCNE IC50, 25-250 nM
[9] = <25 nM, read-out: CDK4/CCND IC50 <25 nM
[10] = <25 nM, read-out: CDK6/CCND IC50 <25 nM
[11] = 25-250 nM marked x, read-out: CDK1/CCNB IC50 25-250 nM
[12] = <25 nM, read-out: CDK2/CCNE IC50 <25 nM
[13] = x = IC50 >250 nM, read-out: CDK4/CCND IC50 (>250 nM column)
[14] = x = IC50 >250 nM, read-out: CDK6/CCND IC50 (>250 nM column)
[15] = x = IC50 >250 nM, read-out: CDK1/CCNB IC50 (>250 nM column)
[16] = x = IC50 25-250 nM, read-out: CDK2/CCNE IC50 (25-250 nM)
[17] = 25-250 nM marked x, read-out: CDK4/CCND IC50 25-250 nM
[18] = 25-250 nM marked x, read-out: CDK6/CCND IC50 25-250 nM
[19] = >250 nM marked x, read-out: CDK1/CCNB IC50 >250 nM
[20] = 25-250 nM marked x, read-out: CDK2/CCNE IC50 25-250 nM
[21] = <25 nM, read-out: CDK2/CCNE IC50, <25 nM
[22] = >250 nM marked x, read-out: CDK4/CCND IC50 >250 nM
[23] = >250 nM marked x, read-out: CDK6/CCND IC50 >250 nM
[24] = x = IC50 <25 nM, read-out: CDK2/CCNE IC50 (<25 nM)

Chain of CDK4/CCND3 (P11802 whole entry): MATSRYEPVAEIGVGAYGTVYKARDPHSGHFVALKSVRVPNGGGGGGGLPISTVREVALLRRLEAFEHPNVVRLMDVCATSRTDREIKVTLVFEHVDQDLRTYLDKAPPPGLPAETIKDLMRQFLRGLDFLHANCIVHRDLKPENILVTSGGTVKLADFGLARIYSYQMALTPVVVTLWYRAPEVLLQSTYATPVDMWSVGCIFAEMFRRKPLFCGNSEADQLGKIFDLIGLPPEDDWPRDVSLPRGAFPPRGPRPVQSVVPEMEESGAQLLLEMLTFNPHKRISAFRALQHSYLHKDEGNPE
Chain of CDK4/CCND3 (P30281 whole entry partner): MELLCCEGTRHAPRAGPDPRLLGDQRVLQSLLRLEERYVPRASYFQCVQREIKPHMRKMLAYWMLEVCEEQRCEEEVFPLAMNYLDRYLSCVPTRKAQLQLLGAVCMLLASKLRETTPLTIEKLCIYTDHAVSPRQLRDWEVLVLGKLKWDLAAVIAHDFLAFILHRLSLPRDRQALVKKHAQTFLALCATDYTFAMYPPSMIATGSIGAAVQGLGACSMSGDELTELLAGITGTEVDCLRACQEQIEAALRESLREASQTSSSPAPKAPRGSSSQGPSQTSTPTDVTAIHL

Cc1c(-c2nccc3cnc(Nc4ccc(NS(=O)(=O)c5ccc(Cl)s5)cc4)cc23)ccc2c1cnn2CC(C)(C)O [Ex 827, 5-chloro-N-(4-((5-(1-(2-hydroxy-2-methylpropyl)-4-methyl-1H-indazol-5-yl)-2,6-naphthyridin-3-yl)amino)phenyl)thiophene-2-sulfonamide]
IC50 [1, 5]: > 250 nM | IC50 [2, 6]: > 250 nM | IC50 [3, 7]: > 250 nM | IC50 [4, 8]: 25 to 250 nM

C=CS(=O)(=O)N1CCC(Nc2cc3c(C4=CCCCC4)nccc3cn2)CC1 [Example 20, 5-(cyclohex-1-en-1-yl)-N-(1-(vinylsulfonyl)piperidin-4-yl)-2,6-naphthyridin-3-amine]
IC50 [1, 9]: < 25 nM | IC50 [2, 10]: < 25 nM | IC50 [3, 11]: 25 to 250 nM | IC50 [4, 12]: < 25 nM

COc1cc(N2CCOCC2)cc(NS(=O)(=O)c2ccc(Nc3cc4c(-c5ccc6c(cnn6CC(O)(C(F)(F)F)C(F)(F)F)c5C)nccc4cn3)cc2)n1 [Ex 704, N-(6-methoxy-4-morpholinopyridin-2-yl)-4-((5-(4-methyl-1-(3,3,3-trifluoro-2-hydroxy-2-(trifluoromethyl)propyl)-1H-indazol-5-yl)-2,6-naphthyridin-3-yl)amino)benzenesulfonamide]
IC50 [1, 5]: > 250 nM | IC50 [2, 6]: > 250 nM | IC50 [3, 7]: > 250 nM | IC50 [4, 8]: 25 to 250 nM

CC(Cn1ncc2c(C)c(-c3nccc4cnc(Nc5ccc(S(C)(=O)=O)cc5)cc34)ccc21)=NO [Example 592, 1-(4-methyl-5-(7-((4-(methylsulfonyl)phenyl)amino)-2,6-naphthyridin-1-yl)-1H-indazol-1-yl)propan-2-one oxime]
IC50 [1, 13]: > 250 nM | IC50 [2, 14]: > 250 nM | IC50 [3, 15]: > 250 nM | IC50 [4, 16]: 25 to 250 nM

CS(=O)(=O)N1CCC(Nc2cc3c(N4CCC(O)CC4)nccc3cn2)CC1 [Example 1, 1-(7-((1-(methylsulfonyl)piperidin-4-yl)amino)-2,6-naphthyridin-1-yl)piperidin-4-ol]
IC50 [1, 17]: 25 to 250 nM | IC50 [2, 18]: 25 to 250 nM | IC50 [3, 19]: > 250 nM | IC50 [4, 20]: 25 to 250 nM

CS(=O)(=O)c1ccc(Nc2cc3c(C#Cc4ccc5c(C#N)c[nH]c5c4)nccc3cn2)cc1 [Ex 532, 6-((7-((4-(methylsulfonyl)phenyl)amino)-2,6-naphthyridin-1-yl)ethynyl)-1H-indole-3-carbonitrile]
IC50 [1, 13]: > 250 nM | IC50 [2, 14]: > 250 nM | IC50 [3, 15]: > 250 nM | IC50 [4, 16]: 25 to 250 nM

C/C=C/S(=O)(=O)c1ccc(Nc2cc3c(N4CCC(C#N)CC4)nccc3cn2)cc1 [Example 670, (E)-1-(7-((4-(prop-1-en-1-ylsulfonyl)phenyl)amino)-2,6-naphthyridin-1-yl)piperidine-4-carbonitrile]
IC50 [1, 13]: > 250 nM | IC50 [2, 14]: > 250 nM | IC50 [3, 15]: > 250 nM | IC50 [4, 16]: 25 to 250 nM

CC#Cc1nccc2cnc(Nc3ccc(S(=O)(=O)Nc4nccn4C)cc3)cc12 [Ex 854, N-(1-methyl-1H-imidazol-2-yl)-4-((5-(prop-1-yn-1-yl)-2,6-naphthyridin-3-yl)amino)benzenesulfonamide]
IC50 [1, 5]: > 250 nM | IC50 [2, 6]: > 250 nM | IC50 [3, 7]: > 250 nM | IC50 [4, 21]: < 25 nM

CC(C)(C)c1nccc2cnc(Nc3ccc(S(C)(=O)=O)cc3)cc12 [Ex 244, 5-(tert-butyl)-N-(4-(methylsulfonyl)phenyl)-2,6-naphthyridin-3-amine]
IC50 [1, 22]: > 250 nM | IC50 [2, 18]: 25 to 250 nM | IC50 [3, 19]: > 250 nM | IC50 [4, 20]: 25 to 250 nM

CCC1(CC)C(=O)Nc2cc(C#Cc3nccc4cnc(Nc5ccc(S(=O)(=O)C6CC(F)(F)C6)cc5OC)cc34)ccc21 [Ex 277, 6-((7-((4-((3,3-difluorocyclobutyl)sulfonyl)-2-methoxyphenyl)amino)-2,6-naphthyridin-1-yl)ethynyl)-3,3-diethylindolin-2-one]
IC50 [1, 22]: > 250 nM | IC50 [2, 23]: > 250 nM | IC50 [3, 19]: > 250 nM | IC50 [4, 20]: 25 to 250 nM

COc1cc(S(=N)(=O)C2CC2)ccc1Nc1cc2c(C#Cc3ccc4c(c3)NC(=O)C43CCC3)nccc2cn1 (single isomer, unassigned) [Example 296, 6′-((7-((4-(cyclopropanesulfonimidoyl)-2-methoxyphenyl)amino)-2,6-naphthyridin-1-yl)ethynyl)spiro[cyclobutane-1,3′-indolin]-2′-one]
IC50 [1, 22]: > 250 nM | IC50 [2, 23]: > 250 nM | IC50 [3, 19]: > 250 nM | IC50 [4, 12]: < 25 nM

Cc1c(-c2nccc3cnc(Nc4ccc(NS(=O)(=O)c5cccc6nsnc56)cc4)cc23)ccc2c1cnn2CC(C)(C)O [Ex 819, N-(4-((5-(1-(2-hydroxy-2-methylpropyl)-4-methyl-1H-indazol-5-yl)-2,6-naphthyridin-3-yl)amino)phenyl)benzo[c][1,2,5]thiadiazole-4-sulfonamide]
IC50 [1, 5]: > 250 nM | IC50 [2, 6]: > 250 nM | IC50 [3, 7]: > 250 nM | IC50 [4, 8]: 25 to 250 nM

CS(=O)(=O)c1ccc(Nc2cc3c(C4=CCCCC4)nccc3cn2)cc1 [Ex 127, 5-(cyclohex-1-en-1-yl)-N-(4-(methylsulfonyl)phenyl)-2,6-naphthyridin-3-amine]
IC50 [1, 9]: < 25 nM | IC50 [2, 10]: < 25 nM | IC50 [3, 11]: 25 to 250 nM | IC50 [4, 12]: < 25 nM

CCC1(CC)C(=O)Nc2cc(C#Cc3nccc4cnc(Nc5ccc(S(C)(=N)=O)cc5C)cc34)ccc21 (single isomer, unassigned) [Ex 336, 3,3-diethyl-6-((7-((2-methyl-4-(S-methylsulfonimidoyl)phenyl)amino)-2,6-naphthyridin-1-yl)ethynyl)indolin-2-one]
IC50 [1, 22]: > 250 nM | IC50 [2, 23]: > 250 nM | IC50 [3, 11]: 25 to 250 nM | IC50 [4, 12]: < 25 nM

Cc1c(-c2nccc3cnc(Nc4ccc(S(C)(=O)=O)cc4)cc23)ccc2c1cnn2CC(C)(C)O (single isomer, unassigned) [Example 674, 2-methyl-1-(4-methyl-5-(7-((4-(methylsulfonyl)phenyl)amino)-2,6-naphthyridin-1-yl)-1H-indazol-1-yl)propan-2-ol]
IC50 ([1]; x = IC50 25-250 nM, read-out: CDK4/CCND IC50 (25-250 nM)): 25 to 250 nM | IC50 ([2]; x = IC50 25-250 nM, read-out: CDK6/CCND IC50 (25-250 nM)): 25 to 250 nM | IC50 ([3]; x = IC50 25-250 nM, read-out: CDK1/CCNB IC50 (25-250 nM)): 25 to 250 nM | IC50 [4, 24]: < 25 nM

Cc1cc(S(C)(=O)=O)ccc1Nc1cc2c(-c3ccc4c(cnn4CC(C)(C)O)c3C)nccc2cn1 [Ex 845, 2-methyl-1-(4-methyl-5-(7-((2-methyl-4-(methylsulfonyl)phenyl)amino)-2,6-naphthyridin-1-yl)-1H-indazol-1-yl)propan-2-ol]
IC50 [1, 5]: > 250 nM | IC50 ([2]; 25-250 nM, 1 mM ATP, read-out: CDK6/CCND IC50, 25-250 nM): 25 to 250 nM | IC50 [3, 7]: > 250 nM | IC50 [4, 21]: < 25 nM

CCC1(CC)C(=O)Nc2cc(C#Cc3nccc4cnc(Nc5ccc(S(=O)(=O)CC)cc5C)cc34)ccc21 [Ex 370, 3,3-diethyl-6-((7-((4-(ethylsulfonyl)-2-methylphenyl)amino)-2,6-naphthyridin-1-yl)ethynyl)indolin-2-one]
IC50 [1, 13]: > 250 nM | IC50 [2, 14]: > 250 nM | IC50 [3, 15]: > 250 nM | IC50 [4, 24]: < 25 nM

Cc1cc2c(cc1C#Cc1nccc3cnc(Nc4ccc(S(=N)(=O)C(C)C)cc4)cc13)NC(=O)C2(C)C (single isomer, unassigned) [Example 315, 3,3,5-trimethyl-6-((7-((4-(propan-2-ylsulfonimidoyl)phenyl)amino)-2,6-naphthyridin-1-yl)ethynyl)indolin-2-one]
IC50 [1, 17]: 25 to 250 nM | IC50 [2, 23]: > 250 nM | IC50 [3, 19]: > 250 nM | IC50 [4, 12]: < 25 nM
